ChEMBL document CHEMBL1128905, “Synthesis and biological activity of 5-heteroaryl benzodiazepines: analogues of YM022” (Bioorg Med Chem Lett, 1996)

Legend:
[1] = biological target: T1, Gastrin/cholecystokinin type B receptor (Rattus norvegicus, UniProt P30553); test: Binding affinity towards gastrin/Cholecystokinin type B receptor from rat brain using [125I]CCK-8 as the radioligand
T1 sequence (P30553 whole entry): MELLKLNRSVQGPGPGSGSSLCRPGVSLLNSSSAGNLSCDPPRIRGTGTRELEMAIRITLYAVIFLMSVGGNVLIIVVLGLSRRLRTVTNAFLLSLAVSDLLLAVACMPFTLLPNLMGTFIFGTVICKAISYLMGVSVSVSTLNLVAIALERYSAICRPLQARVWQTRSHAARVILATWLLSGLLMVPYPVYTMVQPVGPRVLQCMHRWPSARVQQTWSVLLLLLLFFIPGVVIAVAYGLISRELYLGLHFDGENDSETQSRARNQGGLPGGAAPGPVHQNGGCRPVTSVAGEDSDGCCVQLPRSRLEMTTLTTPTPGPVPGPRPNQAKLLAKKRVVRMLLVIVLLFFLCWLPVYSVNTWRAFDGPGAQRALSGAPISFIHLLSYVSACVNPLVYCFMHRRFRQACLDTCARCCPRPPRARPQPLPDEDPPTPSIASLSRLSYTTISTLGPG

[2] = biological target: T2, Cholecystokinin receptor type A (Rattus norvegicus, UniProt P30551); test: Binding affinity towards Cholecystokinin type A receptor from rat pancreas using [I125]-L-364,718 as the radioligand
T2 sequence (P30551 whole entry): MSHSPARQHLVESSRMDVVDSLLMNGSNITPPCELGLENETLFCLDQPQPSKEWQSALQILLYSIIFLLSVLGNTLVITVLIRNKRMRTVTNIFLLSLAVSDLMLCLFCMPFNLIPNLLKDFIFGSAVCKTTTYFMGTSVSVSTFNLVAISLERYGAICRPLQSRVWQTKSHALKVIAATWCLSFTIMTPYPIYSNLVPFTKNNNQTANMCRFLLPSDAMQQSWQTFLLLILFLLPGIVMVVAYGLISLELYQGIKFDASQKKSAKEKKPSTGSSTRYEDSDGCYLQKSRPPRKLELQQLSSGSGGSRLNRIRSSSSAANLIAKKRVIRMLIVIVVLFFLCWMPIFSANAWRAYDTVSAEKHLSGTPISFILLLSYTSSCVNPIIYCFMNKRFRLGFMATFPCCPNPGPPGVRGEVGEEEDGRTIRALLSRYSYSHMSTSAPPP

Rattus norvegicus [3] = test: Compound was evaluated for in vivo inhibition of pentagastrin induced gastric acid secretion in rats by 50% after iv administration; format: functional; conditions: Stomach
Rattus norvegicus [4] = test: Compound was evaluated for in vivo inhibition of pentagastrin induced gastric acid secretion in rats after iv administration at dose of 0.1 umol/kg; format: functional; conditions: Stomach

Cc1cccc(NC(=O)NC2N=C(c3ccccn3)c3ccccc3N(CC(=O)c3ccccc3C)C2=O)c1 (centres undefined)
IC50 [1]: 0.13 nM | IC50 [2]: 980 nM | ED50 (Rattus norvegicus [3]): 0.0167 µmol/kg

Cc1cccc(NC(=O)NC2N=C(c3nccn3C)c3ccccc3N(CC(=O)C(C)(C)C)C2=O)c1 (centres undefined)
IC50 [1]: 4.52 nM | IC50 [2]: 844 nM | inhibition in vivo at 0.1 µmol/kg (Rattus norvegicus [4]): 49%

Cc1cccc(NC(=O)NC2N=C(c3cnccn3)c3ccccc3N(CC(=O)C(C)(C)C)C2=O)c1 (centres undefined)
IC50 [1]: 0.88 nM | IC50 [2]: 1360 nM | inhibition in vivo at 0.1 µmol/kg (Rattus norvegicus [4]): 55%

Cc1cccc(NC(=O)NC2N=C(c3ccccn3)c3ccccc3N(CC(=O)C(C)(C)C)C2=O)c1 (centres undefined)
IC50 [1]: 0.44 nM | IC50 [2]: 470 nM | ED50 (Rattus norvegicus [3]): 0.016 µmol/kg

Cc1cccc(NC(=O)NC2N=C(c3ccccc3)c3ccccc3N(CC(=O)c3ccccc3C)C2=O)c1 (centres undefined)
IC50 [1]: 0.11 nM | IC50 [2]: 146 nM

Cc1cccc(NCNC2N=C(c3ccn[nH]3)c3ccccc3N(CC(=O)C(C)(C)C)C2=O)c1 (centres undefined)
IC50 [1]: > 100 nM | IC50 [2]: 105 nM | inhibition in vivo at 0.1 µmol/kg (Rattus norvegicus [4]): 18%

Cc1cccc(NC(=O)NC2N=C(c3cccnc3)c3ccccc3N(CC(=O)C3CCCC3)C2=O)c1 (centres undefined)
IC50 [1]: 1.6 nM | IC50 [2]: 80 nM | inhibition in vivo at 0.1 µmol/kg (Rattus norvegicus [4]): 34%

Cc1cccc(NC(=O)NC2N=C(c3ccncc3)c3ccccc3N(CC(=O)C3CCCC3)C2=O)c1 (centres undefined)
IC50 [1]: 48 nM | IC50 [2]: > 10000 nM | inhibition in vivo at 0.1 µmol/kg (Rattus norvegicus [4]): 15%

Cc1cccc(NC(=O)NC2N=C(c3ccccn3)c3ccccc3N(CC(=O)C3CCCC3)C2=O)c1 (centres undefined)
IC50 [1]: 0.12 nM | IC50 [2]: 2600 nM | ED50 (Rattus norvegicus [3]): 0.0189 µmol/kg

Cc1cccc(NC(=O)NC2N=C(c3ncc[nH]3)c3ccccc3N(CC(=O)C(C)(C)C)C2=O)c1 (centres undefined)
IC50 [1]: 8 nM | IC50 [2]: 2610 nM | inhibition in vivo at 0.1 µmol/kg (Rattus norvegicus [4]): 14%

Cc1cccc(NC(=O)NC2N=C(c3ccccc3)c3ccccc3N(CC(=O)C(C)(C)C)C2=O)c1 (centres undefined)
IC50 [2]: 111 nM

Cc1cccc(NC(=O)NC2N=C(c3cnc[nH]3)c3ccccc3N(CC(=O)C(C)(C)C)C2=O)c1 (centres undefined)
IC50 [1]: 26.1 nM | IC50 [2]: 232 nM | inhibition in vivo at 0.1 µmol/kg (Rattus norvegicus [4]): 25%

Cc1cccc(NCNC2N=C(c3nccs3)c3ccccc3N(CC(=O)C(C)(C)C)C2=O)c1 (centres undefined)
IC50 [1]: 0.8 nM | IC50 [2]: 433 nM | inhibition in vivo at 0.1 µmol/kg (Rattus norvegicus [4]): 58%

Cc1cccc(NC(=O)NC2N=C(c3ccncc3)c3ccccc3N(CC(=O)c3ccccc3C)C2=O)c1 (centres undefined)
IC50 [1]: 18 nM | IC50 [2]: 670 nM | inhibition in vivo at 0.1 µmol/kg (Rattus norvegicus [4]): 37%
